Measured values as given in US9951063B2, “8-(piperazin-1-yl)-1,2,3,4-tetrahydro-isoquinoline derivatives” (IDORSIA PHARMACEUTICALS LTD, priority 2014, dated 2018).

Molecular target: human CXCR3A (Homo sapiens (Human), UniProt P49682)
Experiment: FLIPR assay (inhibition of CXCL10-induced calcium signal)
Format: cell-based
Conditions: engineered CHO-K1 cells expressing human CXCR3A coupled to Galpha(16); Fluo-4-AM; CXCL10 agonist 20 nM; mean values where determined several times
How it was run: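 CHO-K1 cells expressing human CXCR3A coupled to Gα16 were loaded with Fluo-4-AM for 1 h in HBSS/20 mM Hepes pH 7.4 with probenecid. Compound was added, then CXCL10 (20 nM as dispensed). Baseline-subtracted peak fluorescence gave inhibition curves and IC50, averaged over repeats.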

Sequence of human CXCR3A (P49682 whole entry): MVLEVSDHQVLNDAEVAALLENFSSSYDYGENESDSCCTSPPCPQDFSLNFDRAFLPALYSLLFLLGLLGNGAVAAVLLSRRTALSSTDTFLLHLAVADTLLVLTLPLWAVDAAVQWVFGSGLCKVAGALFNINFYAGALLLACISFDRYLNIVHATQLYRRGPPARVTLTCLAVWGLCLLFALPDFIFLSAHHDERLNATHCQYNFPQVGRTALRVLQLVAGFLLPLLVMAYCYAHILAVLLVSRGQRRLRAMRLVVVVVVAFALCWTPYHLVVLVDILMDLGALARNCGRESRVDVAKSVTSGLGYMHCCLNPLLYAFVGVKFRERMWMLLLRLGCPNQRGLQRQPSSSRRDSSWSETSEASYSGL

Row | Structure (SMILES) | IC50 [nM]
1 | C[C@@H]1CN(c2cccc3c2CN(C(=O)OCc2ccccc2)CC3)CCN1C(=O)Cn1cnc2cccnc21 [Example 60, 8-[(R)-4-(2-Imidazo[4,5-b]pyridin-3-yl-acetyl)-3-methyl-piperazin-1-yl]-3,4-dihydro-1H-isoquinoline-2-carboxylic acid benzyl ester] | 7.94
2 | C[C@@H]1CN(c2cccc3c2CN(C(=O)C2CC2)CC3)CCN1C(=O)Cn1cnc2cccnc21 [Example 61, 1-[(R)-4-(2-Cyclopropanecarbonyl-1,2,3,4-tetrahydro-isoquinolin-8-yl)-2-methyl-piperazin-1-yl]-2-imidazo[4,5-b]pyridin-3-yl-ethanone] | 223
3 | COc1ccc(C(=O)N2CCc3cccc(N4CCN(C(=O)Cn5cnc6cccnc65)[C@H](C)C4)c3C2)cc1 [Example 62, 2-Imidazo[4,5-b]pyridin-3-yl-1-{(R)-4-[2-(4-methoxy-benzoyl)-1,2,3,4-tetrahydro-isoquinolin-8-yl]-2-methyl-piperazin-1-yl}-ethanone] | 121
4 | COc1ccc(CCC(=O)N2CCc3cccc(N4CCN(C(=O)Cn5cnc6cccnc65)[C@H](C)C4)c3C2)cc1 [Example 64, 1-{8-[(R)-4-(2-Imidazo[4,5-b]pyridin-3-yl-acetyl)-3-methyl-piperazin-1-yl]-3,4-dihydro-1H-isoquinolin-2-yl}-3-(4-methoxy-phenyl)-propan-1-one] | 188
5 | C[C@@H]1CN(c2cccc3c2CN(C(=O)Cn2ccc4ccccc42)CC3)CCN1C(=O)Cn1cnc2cccnc21 [Example 66, 2-Imidazo[4,5-b]pyridin-3-yl-1-{(R)-4-[2-(2-indol-1-yl-acetyl)-1,2,3,4-tetrahydro-isoquinolin-8-yl]-2-methyl-piperazin-1-yl}-ethanone] | 304
6 | C[C@@H]1CN(c2cccc3c2CN(C(=O)C2CCCC2)CC3)CCN1C(=O)Cn1cnc2cccnc21 [Example 69, 1-[(R)-4-(2-Cyclopentanecarbonyl-1,2,3,4-tetrahydro-isoquinolin-8-yl)-2-methyl-piperazin-1-yl]-2-imidazo[4,5-b]pyridin-3-yl-ethanone] | 21.7
7 | C[C@@H]1CN(c2cccc3c2CN(C(=O)c2ccccc2)CC3)CCN1C(=O)Cn1cnc2cccnc21 [Example 72, 1-[(R)-4-(2-Benzoyl-1,2,3,4-tetrahydro-isoquinolin-8-yl)-2-methyl-piperazin-1-yl]-2-imidazo[4,5-b]pyridin-3-yl-ethanone] | 92.2
8 | C[C@@H]1CN(c2cccc3c2CN(C(=O)c2ccc(Cl)cc2)CC3)CCN1C(=O)Cn1cnc2cccnc21 [Example 74, 1-{(R)-4-[2-(4-Chloro-benzoyl)-1,2,3,4-tetrahydro-isoquinolin-8-yl]-2-methyl-piperazin-1-yl}-2-imidazo[4,5-b]pyridin-3-yl-ethanone] | 46.6
9 | C[C@@H]1CN(c2cccc3c2CN(C(=O)c2ccc(Cl)c(Cl)c2)CC3)CCN1C(=O)Cn1cnc2cccnc21 [Example 75, 1-{(R)-4-[2-(3,4-Dichloro-benzoyl)-1,2,3,4-tetrahydro-isoquinolin-8-yl]-2-methyl-piperazin-1-yl}-2-imidazo[4,5-b]pyridin-3-yl-ethanone] | 17
10 | C[C@@H]1CN(c2cccc3c2CN(C(=O)c2ccc(C(F)(F)F)cc2)CC3)CCN1C(=O)Cn1cnc2cccnc21 [Example 77, 2-Imidazo[4,5-b]pyridin-3-yl-1-{(R)-2-methyl-4-[2-(4-trifluoromethyl-benzoyl)-1,2,3,4-tetrahydro-isoquinolin-8-yl]-piperazin-1-yl}-ethanone] | 92.3
11 | C[C@@H]1CN(c2cccc3c2CN(C(=O)COc2ccccc2)CC3)CCN1C(=O)Cn1cnc2cccnc21 [Example 81, 2-Imidazo[4,5-b]pyridin-3-yl-1-{(R)-2-methyl-4-[2-(2-phenoxy-acetyl)-1,2,3,4-tetrahydro-isoquinolin-8-yl]-piperazin-1-yl}-ethanone] | 65.1
12 | C[C@@H]1CN(c2cccc3c2CN(C(=O)CCc2ccc(Cl)cc2)CC3)CCN1C(=O)Cn1cnc2cccnc21 [Example 82, 3-(4-Chloro-phenyl)-1-{8-[(R)-4-(2-imidazo[4,5-b]pyridin-3-yl-acetyl)-3-methyl-piperazin-1-yl]-3,4-dihydro-1H-isoquinolin-2-yl}-propan-1-one] | 88.1

The remaining compounds from weak to strong by IC50, led by results:

Row | IC50 [nM] | Structure (SMILES)
13 | 668 | C[C@@H]1CN(c2cccc3c2CN(C(=O)Cc2cccnc2)CC3)CCN1C(=O)Cn1cnc2cccnc21 [Example 63, 2-Imidazo[4,5-b]pyridin-3-yl-1-{(R)-2-methyl-4-[2-(2-pyridin-3-yl-acetyl)-1,2,3,4-tetrahydro-isoquinolin-8-yl]-piperazin-1-yl}-ethanone]
14 | 614 | CC(C)C(=O)N1CCc2cccc(N3CCN(C(=O)Cn4cnc5cccnc54)[C@H](C)C3)c2C1 [Example 67, 1-{8-[(R)-4-(2-Imidazo[4,5-b]pyridin-3-yl-acetyl)-3-methyl-piperazin-1-yl]-3,4-dihydro-1H-isoquinolin-2-yl}-2-methyl-propan-1-one]
15 | 599 | COCC(=O)N1CCc2cccc(N3CCN(C(=O)Cn4cnc5cccnc54)[C@H](C)C3)c2C1 [Example 68, 2-Imidazo[4,5-b]pyridin-3-yl-1-{(R)-4-[2-(2-methoxy-acetyl)-1,2,3,4-tetrahydro-isoquinolin-8-yl]-2-methyl-piperazin-1-yl}-ethanone]
16 | 570 | C[C@@H]1CN(c2cccc3c2CN(C(=O)[C@H](C)c2ccccc2)CC3)CCN1C(=O)Cn1cnc2cccnc21 [Example 79, (R)-1-{8-[(R)-4-(2-Imidazo[4,5-b]pyridin-3-yl-acetyl)-3-methyl-piperazin-1-yl]-3,4-dihydro-1H-isoquinolin-2-yl}-2-phenyl-propan-1-one]
17 | 483 | C[C@@H]1CN(c2cccc3c2CN(C(=O)c2cocn2)CC3)CCN1C(=O)Cn1cnc2cccnc21 [Example 65, 2-Imidazo[4,5-b]pyridin-3-yl-1-{(R)-2-methyl-4-[2-(oxazole-4-carbonyl)-1,2,3,4-tetrahydro-isoquinolin-8-yl]-piperazin-1-yl}-ethanone]
18 | 450 | C[C@@H]1CN(c2cccc3c2CN(C(=O)CCc2ccccc2)CC3)CCN1C(=O)Cn1cnc2cccnc21 [Example 83, 1-{8-[(R)-4-(2-Imidazo[4,5-b]pyridin-3-yl-acetyl)-3-methyl-piperazin-1-yl]-3,4-dihydro-1H-isoquinolin-2-yl}-3-phenyl-propan-1-one]
19 | 216 | C[C@@H]1CN(c2cccc3c2CN(C(=O)Cc2ccccc2)CC3)CCN1C(=O)Cn1cnc2cccnc21 [Example 78, 2-Imidazo[4,5-b]pyridin-3-yl-1-[(R)-2-methyl-4-(2-phenylacetyl-1,2,3,4-tetrahydro-isoquinolin-8-yl)-piperazin-1-yl]-ethanone]
20 | 199 | C[C@@H]1CN(c2cccc3c2CN(C(=O)C2(c4ccccc4)CC2)CC3)CCN1C(=O)Cn1cnc2cccnc21 [Example 80, 2-Imidazo[4,5-b]pyridin-3-yl-1-{(R)-2-methyl-4-[2-(1-phenyl-cyclopropanecarbonyl)-1,2,3,4-tetrahydro-isoquinolin-8-yl]-piperazin-1-yl}-ethanone]
21 | 111 | Cc1ccc(C(=O)N2CCc3cccc(N4CCN(C(=O)Cn5cnc6cccnc65)[C@H](C)C4)c3C2)cc1 [Example 73, 2-Imidazo[4,5-b]pyridin-3-yl-1-{(R)-2-methyl-4-[2-(4-methyl-benzoyl)-1,2,3,4-tetrahydro-isoquinolin-8-yl]-piperazin-1-yl}-ethanone]
22 | 99.7 | C[C@@H]1CN(c2cccc3c2CN(C(=O)CCc2ccc(Cl)c(Cl)c2)CC3)CCN1C(=O)Cn1cnc2cccnc21 [Example 84, 3-(3,4-Dichloro-phenyl)-1-{8-[(R)-4-(2-imidazo[4,5-b]pyridin-3-yl-acetyl)-3-methyl-piperazin-1-yl]-3,4-dihydro-1H-isoquinolin-2-yl}-propan-1-one]
23 | 82.4 | C[C@@H]1CN(c2cccc3c2CN(C(=O)c2cccc(N(C)C)c2)CC3)CCN1C(=O)Cn1cnc2cccnc21 [Example 76, 1-{(R)-4-[2-(3-Dimethylamino-benzoyl)-1,2,3,4-tetrahydro-isoquinolin-8-yl]-2-methyl-piperazin-1-yl}-2-imidazo[4,5-b]pyridin-3-yl-ethanone]
24 | 80.2 | C[C@@H]1CN(c2cccc3c2CN(C(=O)[C@@H]2CCCc4ccccc42)CC3)CCN1C(=O)Cn1cnc2cccnc21 [Example 71, 2-Imidazo[4,5-b]pyridin-3-yl-1-{(R)-2-methyl-4-[2-((R)-1,2,3,4-tetrahydro-naphthalene-1-carbonyl)-1,2,3,4-tetrahydro-isoquinolin-8-yl]-piperazin-1-yl}-ethanone]
25 | 55.5 | C[C@@H]1CN(c2cccc3c2CN(C(=O)C2CCCCC2)CC3)CCN1C(=O)Cn1cnc2cccnc21 [Example 70, 1-[(R)-4-(2-Cyclohexanecarbonyl-1,2,3,4-tetrahydro-isoquinolin-8-yl)-2-methyl-piperazin-1-yl]-2-imidazo[4,5-b]pyridin-3-yl-ethanone]
26 | 26.5 | Cc1cc(C)n(CC(=O)N2CCN(c3ccc(C(F)(F)F)c4c3CN(c3nc5ccccc5s3)CC4)C[C@H]2C)n1 [Example 57, 1-[(R)-4-(2-Benzothiazol-2-yl-5-trifluoromethyl-1,2,3,4-tetrahydro-isoquinolin-8-yl)-2-methyl-piperazin-1-yl]-2-(3,5-dimethyl-pyrazol-1-yl)-ethanone]
27 | 16.9 | CCc1ncc(N2CCc3c(C(F)(F)F)ccc(N4CCN(C(=O)Cn5nc(C)nc5C)[C@H](C)C4)c3C2)cn1 [Example 58, 2-(3,5-Dimethyl-[1,2,4]triazol-1-yl)-1-{(R)-4-[2-(2-ethyl-pyrimidin-5-yl)-5-trifluoromethyl-1,2,3,4-tetrahydro-isoquinolin-8-yl]-2-methyl-piperazin-1-yl}-ethanone]
28 | 12.3 | Cc1nc(C)n(CC(=O)N2CCN(c3ccc(C(F)(F)F)c4c3CN(c3cnc(C(F)(F)F)nc3)CC4)C[C@H]2C)n1 [Example 59, 2-(3,5-Dimethyl-[1,2,4]triazol-1-yl)-1-{(R)-2-methyl-4-[5-trifluoromethyl-2-(2-trifluoromethyl-pyrimidin-5-yl)-1,2,3,4-tetrahydro-isoquinolin-8-yl]-piperazin-1-yl}-ethanone]
